Legend:
[1] = target: DGKα (Homo sapiens, UniProt P23743); assay: DGKα biochemical assay (ADP-Glo); conditions: read-out: DGK α IC50
Summary of the method: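 ADP-Glo kinase assay using OAG/PS (1:2) lipid substrate, sonicated, in HEPES pH 7.0 buffer with MgCl2, CaCl2, DTT, BSA, Triton X-100. Enzyme preincubated with compound 30 min at RT; substrate with ATP (DGKα: 400 μM) added, 45 min RT. Luminescence read; % inhibition vs DMSO and no-enzyme controls.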

[2] = target: T1, DGKζ (Homo sapiens, UniProt Q13574); assay: DGKζ biochemical assay (ADP-Glo); conditions: read-out: DGK ζ IC50
T1 construct: purchased Carna 12-110
T1 sequence (Q13574 1-929 isoform Q13574-4): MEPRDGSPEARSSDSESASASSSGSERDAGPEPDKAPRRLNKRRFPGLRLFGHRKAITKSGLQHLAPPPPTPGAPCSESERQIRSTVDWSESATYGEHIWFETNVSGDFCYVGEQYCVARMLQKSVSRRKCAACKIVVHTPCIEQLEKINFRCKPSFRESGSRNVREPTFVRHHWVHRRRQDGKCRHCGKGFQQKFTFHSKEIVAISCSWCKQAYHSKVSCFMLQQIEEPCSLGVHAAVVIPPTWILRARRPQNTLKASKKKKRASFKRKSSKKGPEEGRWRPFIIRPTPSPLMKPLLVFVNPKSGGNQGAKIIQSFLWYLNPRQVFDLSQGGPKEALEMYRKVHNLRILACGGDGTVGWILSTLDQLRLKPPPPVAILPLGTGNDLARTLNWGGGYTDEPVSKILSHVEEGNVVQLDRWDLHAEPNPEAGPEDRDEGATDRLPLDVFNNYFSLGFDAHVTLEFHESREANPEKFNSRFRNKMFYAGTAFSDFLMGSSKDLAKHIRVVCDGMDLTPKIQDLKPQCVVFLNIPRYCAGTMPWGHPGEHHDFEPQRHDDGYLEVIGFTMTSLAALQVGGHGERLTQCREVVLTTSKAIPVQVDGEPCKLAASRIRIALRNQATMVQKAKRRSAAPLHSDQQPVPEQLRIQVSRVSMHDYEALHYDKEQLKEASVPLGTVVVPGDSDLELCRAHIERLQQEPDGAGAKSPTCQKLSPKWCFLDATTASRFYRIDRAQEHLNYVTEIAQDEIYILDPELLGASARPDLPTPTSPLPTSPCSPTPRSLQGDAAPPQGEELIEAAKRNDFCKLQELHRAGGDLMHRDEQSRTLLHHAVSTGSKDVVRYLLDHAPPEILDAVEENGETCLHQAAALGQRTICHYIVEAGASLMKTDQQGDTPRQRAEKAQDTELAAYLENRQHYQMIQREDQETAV

Chain of DGKα (P23743 whole entry): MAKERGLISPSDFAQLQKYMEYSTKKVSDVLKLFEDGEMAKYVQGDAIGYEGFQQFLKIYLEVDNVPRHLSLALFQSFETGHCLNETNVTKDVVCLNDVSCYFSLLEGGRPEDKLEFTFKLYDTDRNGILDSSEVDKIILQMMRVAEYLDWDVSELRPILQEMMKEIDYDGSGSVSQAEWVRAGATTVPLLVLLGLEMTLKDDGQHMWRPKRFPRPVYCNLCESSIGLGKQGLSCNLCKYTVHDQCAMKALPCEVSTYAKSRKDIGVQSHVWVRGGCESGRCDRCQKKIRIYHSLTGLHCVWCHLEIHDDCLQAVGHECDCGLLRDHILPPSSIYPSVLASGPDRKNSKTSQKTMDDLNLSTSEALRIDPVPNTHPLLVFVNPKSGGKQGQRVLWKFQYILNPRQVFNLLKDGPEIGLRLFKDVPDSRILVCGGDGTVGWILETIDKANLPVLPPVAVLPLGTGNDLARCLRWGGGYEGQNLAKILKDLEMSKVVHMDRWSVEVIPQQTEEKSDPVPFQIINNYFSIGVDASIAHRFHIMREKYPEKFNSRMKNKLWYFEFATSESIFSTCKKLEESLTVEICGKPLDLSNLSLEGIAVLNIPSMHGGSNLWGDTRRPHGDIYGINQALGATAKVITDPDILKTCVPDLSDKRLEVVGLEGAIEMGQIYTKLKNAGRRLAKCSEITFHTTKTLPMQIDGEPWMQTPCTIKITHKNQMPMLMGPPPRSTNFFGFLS

Compound Cc1nc(F)ccc1N(CC1CCC1)[C@H]1CC[C@H](N(C)c2c(C#N)c(=O)n(C)c3ccc(C#N)nc23)CC1 [Example 131, trans-8-((-4-((cyclobutylmethyl)(6-fluoro-2-methylpyridin-3-yl)amino)cyclohexyl)(methyl)amino)-5-methyl-6-oxo-5,6-dihydro-1,5-naphthyridine-2,7-dicarbonitrile] has an IC50 [1] of 100 to 1000 nM and an IC50 [2] of 100 to 1000 nM.

Compound Cn1c(=O)c(C#N)c(N(C)[C@H]2CC[C@@H](N(CC3CC3)c3cccc(F)c3)CC2)c2nc(C#N)ccc21 [Example 26, cis-8-((4-((cyclopropylmethyl)(3-fluorophenyl)amino)cyclohexyl)(methyl)amino)-5-methyl-6-oxo-5,6-dihydro-1,5-naphthyridine-2,7-dicarbonitrile] has an IC50 [1] of 10 to 100 nM and an IC50 [2] of 100 to 1000 nM.

In the case of O=C(N[C@H]1CC[C@@H](N(CC2CC2)c2ccccc2)CC1)c1c[nH]c2cccnc12 [Example 4F, cis-N-(4-((Cyclopropylmethyl)(phenyl)amino)cyclohexyl)-1H-pyrrolo[3,2-b]pyridine-3-carboxamide], the IC50 [1] is reported as ≥ 1000 nM and the IC50 [2] is reported as ≥ 1000 nM.

CN1C(=O)CN([C@H]2CC[C@H](N(CC3CC3)c3ccccc3)CC2)c2nc(C#N)ccc21 [Example 2A, trans-4-[4-[N-(Cyclopropylmethyl)anilino]cyclohexyl]-1-methyl-2-oxo-3H-pyrido[2,3-b]pyrazine-6-carbonitrile] was tested, and the IC50 [1] was 10 to 100 nM and the IC50 [2] was ≥ 1000 nM.

Cc1cc(F)cc(N(CC2CCC2)[C@H]2CC[C@@H](N(C)c3c(C#N)c(=O)n(C)c4ccc(C#N)nc34)CC2)c1 [Example 113, cis-8-((-4-((cyclobutylmethyl)(3-fluoro-5-methylphenyl)amino)cyclohexyl)(methyl)amino)-5-methyl-6-oxo-5,6-dihydro-1,5-naphthyridine-2,7-dicarbonitrile] showed an IC50 [1] of 10 to 100 nM and an IC50 [2] of 10 to 100 nM.

Compound Cn1c(=O)cc(N(C)[C@H]2CC[C@@H](N(CC3CCC3)c3cc(F)cc(F)c3)CC2)c2nc(C#N)ccc21 [Example 134, cis-8-((-4-((cyclobutylmethyl)(3,5-difluorophenyl)amino)cyclohexyl)(methyl)amino)-5-methyl-6-oxo-5,6-dihydro-1,5-naphthyridine-2-carbonitrile] has an IC50 [1] of 10 to 100 nM and an IC50 [2] of 100 to 1000 nM.

Cn1c(=O)c(C#N)c(N(C)[C@H]2CC[C@H](N(CC3CCC3)c3cccc4c3OCO4)CC2)c2nc(Cl)ccc21 [Example 132, trans-4-((-4-(benzo[d][1,3]dioxol-4-yl(cyclobutylmethyl)amino)cyclohexyl)(methyl)amino)-6-chloro-1-methyl-2-oxo-1,2-dihydro-1,5-naphthyridine-3-carbonitrile] was tested, and the IC50 [1] was < 10 nM and the IC50 [2] was 10 to 100 nM.

COc1cc(N(CC2CC2)[C@H]2CC[C@H](N(C)c3c(C#N)c(=O)n(C)c4ccc(C#N)nc34)CC2)ccc1F [Example 34, trans-8-((4-((cyclopropylmethyl)(4-fluoro-3-methoxyphenyl)amino)cyclohexyl)(methyl)amino)-5-methyl-6-oxo-5,6-dihydro-1,5-naphthyridine-2,7-dicarbonitrile] was tested, and the IC50 [1] was 100 to 1000 nM and the IC50 [2] was ≥ 1000 nM.

COc1cc(N(C2CC2)[C@H]2CC[C@@H](N(C)c3c(C#N)c(=O)n(C)c4ccc(C#N)nc34)CC2)ccc1F [Example 65] showed an IC50 [1] of 10 to 100 nM and an IC50 [2] of 10 to 100 nM.

With COc1cc(N(CC2CC2)[C@H]2CC[C@H](N(C)c3c(C#N)c(=O)n(C)c4ccc(Cl)nc34)CC2)ccc1F [Example 39, trans-6-chloro-4-((4-((cyclopropylmethyl)(4-fluoro-3-methoxyphenyl)amino)cyclohexyl)(methyl)amino)-1-methyl-2-oxo-1,2-dihydro-1,5-naphthyridine-3-carbonitrile] the IC50 [1] was 10 to 100 nM and the IC50 [2] was 100 to 1000 nM.

In the case of Cn1c(=O)cc(N[C@H]2CC[C@H](N(CC3CC3)c3ccc(F)cc3)CC2)c2nc(C#N)ccc21 [Example 3R, trans-8-((4-((Cyclopropylmethyl)(4-fluorophenyl)amino)cyclohexyl)amino)-5-methyl-6-oxo-5,6-dihydro-1,5-naphthyridine-2-carbonitrile], the IC50 [1] is reported as 10 to 100 nM and the IC50 [2] is reported as ≥ 1000 nM.

With Cc1ccc2c(c1)c(N1CCC(N(CC3CC3)c3ccccc3)CC1)cc1nncn12 [Example 1F, N-(Cyclopropylmethyl)-1-(7-methyl-[1,2,4]triazolo[4,3-a]quinolin-5-yl)-N-phenylpiperidin-4-amine] the IC50 [1] was 10 to 100 nM and the IC50 [2] was ≥ 1000 nM.

With Cn1c(=O)c(C#N)c(N(C)[C@H]2CC[C@@H](N(CC3CC3)c3cc4c(cn3)OCO4)CC2)c2nc(C#N)ccc21 [Example 213, cis-8-((-4-([1,3]dioxolo[4,5-c]pyridin-6-yl(cyclopropylmethyl)amino)cyclohexyl)(methyl)amino)-5-methyl-6-oxo-5,6-dihydro-1,5-naphthyridine-2,7-dicarbonitrile] the IC50 [1] was 10 to 100 nM and the IC50 [2] was 100 to 1000 nM.

For COc1ccc(N(C2CC2)[C@H]2CC[C@H](N(C)c3c(C#N)c(=O)n(C)c4ccc(Cl)nc34)CC2)cc1 [Example 3E, trans-6-chloro-4-((4-(cyclopropyl(4-methoxyphenyl)amino)cyclohexyl)(methyl)amino)-1-methyl-2-oxo-1,2-dihydro-1,5-naphthyridine-3-carbonitrile], the IC50 [1] was 10 to 100 nM and the IC50 [2] was ≥ 1000 nM.

For Cn1c(=O)c(F)c(N(C)[C@H]2CC[C@@H](N(CC3COCCO3)c3ccc(F)cc3F)CC2)c2nc(C#N)ccc21 (stereo partly drawn) [Example 205, cis-8-((-4-(((1,4-dioxan-2-yl)methyl)(2,4-difluorophenyl)amino)cyclohexyl)(methyl)amino)-7-fluoro-5-methyl-6-oxo-5,6-dihydro-1,5-naphthyridine-2-carbonitrile], the IC50 [1] was 10 to 100 nM and the IC50 [2] was 10 to 100 nM.

In the case of Cn1c(=O)c(C#N)c(N(C)[C@H]2CC[C@@H](N(CC3COCCO3)c3ccc(F)cc3)CC2)c2nc(C#N)ccc21 (stereo partly drawn) [Example 141, cis-8-((-4-(((1,4-dioxan-2-yl)methyl)(4-fluorophenyl)amino)cyclohexyl)(methyl)amino)-5-methyl-6-oxo-5,6-dihydro-1,5-naphthyridine-2,7-dicarbonitrile], the IC50 [1] is reported as < 10 nM and the IC50 [2] is reported as 10 to 100 nM.

Compound COc1cc(F)ccc1N(CC1CC1)[C@H]1CC[C@@H](N(C)c2cc(=O)n(C)c3ccc(C#N)nc23)CC1 [Example 3Z, cis-8-[[4-(N-cyclopropylmethyl-N-4-fluoro-2-methoxyphenyl-anilino)cyclohexyl]-methyl-amino]-5-methyl-6-oxo-5,6-dihydro-1,5-naphthyridine-2-carbonitrile] has an IC50 [1] of 100 to 1000 nM and an IC50 [2] of 100 to 1000 nM.

In the case of Cc1ccc(N(CC2CCC2)[C@H]2CC[C@@H](N(C)c3cc(=O)n(C)c4ccc(C#N)nc34)CC2)cc1 [Example 100], the IC50 [1] is reported as < 10 nM and the IC50 [2] is reported as ≥ 1000 nM.

Compound Cn1c(=O)c(C#N)c(N(C)[C@H]2CC[C@@H](N(CC3CCC3)c3ccc4c(c3)OCCO4)CC2)c2nc(C#N)ccc21 [Example 170, cis-8-((4-((cyclobutylmethyl)(2,3-dihydrobenzo[b] [1,4]dioxin-6-yl)amino)cyclohexyl)(methyl)amino)-5-methyl-6-oxo-5,6-dihydro-1,5-naphthyridine-2,7-dicarbonitrile] has an IC50 [1] of 10 to 100 nM and an IC50 [2] of 10 to 100 nM.

Reference: patent US20230271954A1 (Gossamer Bio Services, Inc., priority 2020, published 2023)
